Measured values reported in patent US20220339143A1, “TAK-925 FOR USE IN TREATING NARCOLEPSY” (Takeda Pharmaceutical Company Limited, priority 2019, published 2022).
Entries after “also recorded” stand apart in the source; their conditions may differ. Read-outs that look alike come from different tables or passages of the source.

Test: Single dose PK in patients with narcolepsy (Cohorts 5, 6 and 7), plasma
Type: in vivo, human
Details: for AUC(0-inf) / AUC(0-t) / Cmax / AUC / concentration at 9 h / Tmax / Vd / clearance / concentration at 1 h / concentration at 2 h / concentration at 4 h / concentration at 6 h: human, plasma; for AUC: read-out: AUC24
Description: This study investigates (i) the safety and tolerability of Compound A (methyl (2R,3S)-3-((methylsulfonyl)amino)-2-(((cis-4-phenylcyclohexyl)oxy)methyl)piperidine-1-carboxylate) when a single dose given as a 9 hour continuous IV infusion is administered to healthy adults, healthy elderly subjects and patients with narcolepsy type 1 (NT1); (ii) the pharmacokinetics of Compound A when a single dose given as a 9 hour continuous IV infusion is administered to healthy adults, healthy elderly subjects and patients with narcolepsy type 1; and (iii) the pharmacodynamics (PD) effects of Compound A, primarily by evaluation of the sleep latency on MWT when a single dose given as a 9 hour continuous IV infusion is administered to patients with narcolepsy type 1.
In Part 2, NT1 patients received a single dose of Compound A or placebo administered as a continuous IV infusion over a 9-hour period during the day. A 40-minute Maintenance of Wakefulness Test (MWT) was conducted 4 times during the continuous IV infusion to assess effects on wakefulness in soporific conditions at 2, 4, 6 and 8 hours from start of infusion. Three cohorts of patients were enrolled (n=14 total).
Pharmacokinetics: Concentrations of Compound A in plasma, and CSF, and pharmacokinetics parameters.
On average, the time to reach the plateau appeared to be approximately 4 hours after the start of infusion. […] After switching off the IV infusion, Compound A plasma concentrations declined rapidly and in a biphasic manner with a mean terminal disposition phase t1/2z ranging approximately from 3.5 to 4.1 hours across the doses.

[1] = Cmpd A 5 mg, Mean, Cohort 5, 6, 7
[2] = Cmpd A 5 mg, Median, Cohort 5, 6, 7
[3] = Cmpd A 11.2 mg, Mean, Cohort 5, 6, 7
[4] = Cmpd A 11.2 mg, Median, Cohort 5, 6, 7
[5] = Cmpd A 44.8 mg, Mean, Cohort 5, 6, 7
[6] = Cmpd A 44.8 mg, Median, Cohort 5, 6, 7
[7] = intravenous, 5 mg, Cmpd A 5 mg, Geo Mean, Cohort 5, 6, 7
[8] = intravenous, 5 mg, Cmpd A 5 mg, Mean, Cohort 5, 6, 7
[9] = intravenous, 5 mg, Cmpd A 5 mg, Median, Cohort 5, 6, 7
[10] = intravenous, 11.2 mg, Cmpd A 11.2 mg, Geo Mean, Cohort 5, 6, 7
[11] = intravenous, 11.2 mg, Cmpd A 11.2 mg, Mean, Cohort 5, 6, 7
[12] = intravenous, 11.2 mg, Cmpd A 11.2 mg, Median, Cohort 5, 6, 7
[13] = intravenous, 44.8 mg, Cmpd A 44.8 mg, Geo Mean, Cohort 5, 6, 7
[14] = intravenous, 44.8 mg, Cmpd A 44.8 mg, Mean, Cohort 5, 6, 7
[15] = intravenous, 44.8 mg, Cmpd A 44.8 mg, Median, Cohort 5, 6, 7
[16] = iv, 5 mg, NT1, single 9 h IV infusion, read-out: Plasma concentration, Mean
[17] = iv, 5 mg, NT1, single 9 h IV infusion, read-out: Plasma concentration, Median
[18] = iv, 11.2 mg, NT1, single 9 h IV infusion, read-out: Plasma concentration, Mean
[19] = iv, 11.2 mg, NT1, single 9 h IV infusion, read-out: Plasma concentration, Median
[20] = iv, 44.8 mg, NT1, single 9 h IV infusion, read-out: Plasma concentration, Mean
[21] = iv, 44.8 mg, NT1, single 9 h IV infusion, read-out: Plasma concentration, Median

COC(=O)N1CCC[C@H](NS(C)(=O)=O)[C@@H]1CO[C@H]1CC[C@@H](c2ccccc2)CC1 [Compound A, methyl (2R,3S)-3-((methylsulfonyl)amino)-2-(((cis-4-phenylcyclohexyl)oxy)methyl)piperidine-1-carboxylate]
AUCinf D [1]: 17.88 ng·h/mL/mg
CL [1]: 57.05 L/h
Cmax D [1]: 2.050 ng/mL/mg
t½z [1]: 3.465 h
AUCinf D [2]: 18.20 ng·h/mL/mg
Cmax D [2]: 2.000 ng/mL/mg
Vz [2]: 284.5 L
t½z [2]: 3.380 h
AUCinf D [3]: 17.95 ng·h/mL/mg
Cmax D [3]: 1.963 ng/mL/mg
Vss [3]: 114.1 L
Vz [3]: 316.8 L
t½z [3]: 3.923 h
AUCinf D [4]: 18.05 ng·h/mL/mg
Cmax D [4]: 1.990 ng/mL/mg
Vss [4]: 113.5 L
Vz [4]: 336.5 L
t½z [4]: 4.020 h
AUCinf D [5]: 21.45 ng·h/mL/mg
Cmax D [5]: 2.195 ng/mL/mg
t½z [5]: 4.130 h
AUCinf D [6]: 20.80 ng·h/mL/mg
Cmax D [6]: 2.170 ng/mL/mg
t½z [6]: 3.885 h
systemic exposures and clearance in NT1 patients vs healthy adults (IV administration): consistent with those observed in healthy adults; also recorded: comparable with those observed in healthy adults
dose proportionality of mean plasma systemic exposure (doses of 5 to 44.8 mg, NT1 patients): increased approximately dose proportionally
AUC(0-inf) [7]: 88.5 ng·h/mL
AUC(0-t) [7]: 86.2 ng·h/mL
Cmax [7]: 10.1 ng/mL
AUC [7]: 88 ng·h/mL
concentration at 9 h (intravenous, 5 mg, Cmpd A 5 mg, Geo Mean, Cohort 5, 6, 7, read-out: Ceoi): 9.65 ng/mL
AUC(0-inf) [8]: 89.3 ng·h/mL
AUC(0-t) [8]: 87.2 ng·h/mL
Cmax [8]: 10.2 ng/mL
Tmax [8]: 8 h
AUC [8]: 88.8 ng·h/mL
concentration at 9 h (intravenous, 5 mg, Cmpd A 5 mg, Mean, Cohort 5, 6, 7, read-out: Ceoi): 9.71 ng/mL
Vd (intravenous, 5 mg, Cmpd A 5 mg, Mean, Cohort 5, 6, 7, read-out: Vss): 112 L
Vd (intravenous, 5 mg, Cmpd A 5 mg, Mean, Cohort 5, 6, 7, read-out: Vz): 282 L
AUC(0-inf) [9]: 91.1 ng·h/mL
AUC(0-t) [9]: 89.2 ng·h/mL
Cmax [9]: 9.99 ng/mL
Tmax [9]: 9 h
AUC [9]: 90.8 ng·h/mL
clearance (intravenous, 5 mg, Cmpd A 5 mg, Median, Cohort 5, 6, 7, read-out: CL (converted)): 915 mL/min
concentration at 9 h (intravenous, 5 mg, Cmpd A 5 mg, Median, Cohort 5, 6, 7, read-out: Ceoi): 9.99 ng/mL
Vd (intravenous, 5 mg, Cmpd A 5 mg, Median, Cohort 5, 6, 7, read-out: Vss): 110 L
AUC(0-inf) [10]: 201 ng·h/mL
AUC(0-t) [10]: 199 ng·h/mL
Cmax [10]: 21.9 ng/mL
AUC [10]: 199 ng·h/mL
concentration at 9 h (intravenous, 11.2 mg, Cmpd A 11.2 mg, Geo Mean, Cohort 5, 6, 7, read-out: Ceoi): 21.2 ng/mL
AUC(0-inf) [11]: 201 ng·h/mL
AUC(0-t) [11]: 199 ng·h/mL
Cmax [11]: 22 ng/mL
Tmax [11]: 7.75 h
AUC [11]: 199 ng·h/mL
clearance (intravenous, 11.2 mg, Cmpd A 11.2 mg, Mean, Cohort 5, 6, 7, read-out: CL (converted)): 932 mL/min
concentration at 9 h (intravenous, 11.2 mg, Cmpd A 11.2 mg, Mean, Cohort 5, 6, 7, read-out: Ceoi): 21.2 ng/mL
AUC(0-inf) [12]: 202 ng·h/mL
AUC(0-t) [12]: 200 ng·h/mL
Cmax [12]: 22.3 ng/mL
Tmax [12]: 9 h
AUC [12]: 200 ng·h/mL
clearance (intravenous, 11.2 mg, Cmpd A 11.2 mg, Median, Cohort 5, 6, 7, read-out: CL (converted)): 924 mL/min
concentration at 9 h (intravenous, 11.2 mg, Cmpd A 11.2 mg, Median, Cohort 5, 6, 7, read-out: Ceoi): 21.9 ng/mL
AUC(0-inf) [13]: 925 ng·h/mL
AUC(0-t) [13]: 911 ng·h/mL
Cmax [13]: 96.5 ng/mL
AUC [13]: 911 ng·h/mL
concentration at 9 h (intravenous, 44.8 mg, Cmpd A 44.8 mg, Geo Mean, Cohort 5, 6, 7, read-out: Ceoi): 94 ng/mL
AUC(0-inf) [14]: 959 ng·h/mL
AUC(0-t) [14]: 941 ng·h/mL
Cmax [14]: 98.3 ng/mL
Tmax [14]: 6.5 h
AUC [14]: 941 ng·h/mL
clearance (intravenous, 44.8 mg, Cmpd A 44.8 mg, Mean, Cohort 5, 6, 7, read-out: CL (converted)): 836 mL/min
concentration at 9 h (intravenous, 44.8 mg, Cmpd A 44.8 mg, Mean, Cohort 5, 6, 7, read-out: Ceoi): 96.2 ng/mL
Vd (intravenous, 44.8 mg, Cmpd A 44.8 mg, Mean, Cohort 5, 6, 7, read-out: Vss): 117 L
Vd (intravenous, 44.8 mg, Cmpd A 44.8 mg, Mean, Cohort 5, 6, 7, read-out: Vz): 281 L
AUC(0-inf) [15]: 930 ng·h/mL
AUC(0-t) [15]: 919 ng·h/mL
Cmax [15]: 97 ng/mL
Tmax [15]: 6.5 h
AUC [15]: 919 ng·h/mL
clearance (intravenous, 44.8 mg, Cmpd A 44.8 mg, Median, Cohort 5, 6, 7, read-out: CL (converted)): 809 mL/min
concentration at 9 h (intravenous, 44.8 mg, Cmpd A 44.8 mg, Median, Cohort 5, 6, 7, read-out: Ceoi): 95.2 ng/mL
Vd (intravenous, 44.8 mg, Cmpd A 44.8 mg, Median, Cohort 5, 6, 7, read-out: Vss): 116 L
Vd (intravenous, 44.8 mg, Cmpd A 44.8 mg, Median, Cohort 5, 6, 7, read-out: Vz): 282 L
concentration at 1 h [16]: 6.38 ng/mL
concentration at 1 h [17]: 6.25 ng/mL
concentration at 2 h [16]: 8.75 ng/mL
concentration at 2 h [17]: 9.15 ng/mL
concentration at 4 h [16]: 10.1 ng/mL
concentration at 4 h [17]: 9.62 ng/mL
concentration at 6 h [16]: 7.91 ng/mL
concentration at 6 h [17]: 7.97 ng/mL
concentration at 9 h (iv, 5 mg, 9 hr, NT1, single 9 h IV infusion, read-out: Plasma concentration, Mean): 9.64 ng/mL
concentration at 9 h (iv, 5 mg, 9 hr, NT1, single 9 h IV infusion, read-out: Plasma concentration, Median): 9.96 ng/mL
concentration at 1 h [18]: 14.4 ng/mL
concentration at 1 h [19]: 14.3 ng/mL
concentration at 2 h [18]: 17.3 ng/mL
concentration at 2 h [19]: 17.1 ng/mL
concentration at 4 h [18]: 21.5 ng/mL
concentration at 4 h [19]: 21.5 ng/mL
concentration at 6 h [18]: 19.5 ng/mL
concentration at 6 h [19]: 19.8 ng/mL
concentration at 9 h (iv, 11.2 mg, 9 hr, NT1, single 9 h IV infusion, read-out: Plasma concentration, Mean): 21.2 ng/mL
concentration at 9 h (iv, 11.2 mg, 9 hr, NT1, single 9 h IV infusion, read-out: Plasma concentration, Median): 21.9 ng/mL
concentration at 1 h [20]: 61.5 ng/mL
concentration at 1 h [21]: 56.5 ng/mL
concentration at 2 h [20]: 74.1 ng/mL
concentration at 2 h [21]: 76.3 ng/mL
concentration at 4 h [20]: 96 ng/mL
concentration at 4 h [21]: 92.9 ng/mL
concentration at 6 h [20]: 90 ng/mL
concentration at 6 h [21]: 88.3 ng/mL
concentration at 9 h (iv, 44.8 mg, 9 hr, NT1, single 9 h IV infusion, read-out: Plasma concentration, Mean): 96.2 ng/mL
concentration at 9 h (iv, 44.8 mg, 9 hr, NT1, single 9 h IV infusion, read-out: Plasma concentration, Median): 95.2 ng/mL
clearance (iv, IV administration, NT1 patients, read-out: mean estimates of plasma clearance): 833 to 950 mL/min
time to reach the plateau of plasma concentration after the start of infusion (single 9 h IV infusion, 5 to 44.8 mg, NT1 patients): approximately 4 hours
